Experimental data taken from paper PMC11279616 (Pharmaceuticals, 2024).
Where no end group is shown, it is not given here.

What was measured:
Vero E6 cells [1] = type: cell-based, African green monkey; conditions: at 50 and at 100 μg, MTS
Procedure: For the MTS assay, VERO E6 cells (2 × 10^4/well) were seeded into 96-well plates in triplicate and cultured in growth medium. Then, different peptide concentrations were added, and the viability was tested every day for three consecutive days using the CellTiter […] Aqueous One Solution Cell Proliferation Assay kit (CTB169; Promega, Fitchburg, WI, USA) following the manufacturers manual. Untreated cells were used for value normalizations.

Vero E6 cells [2] = conditions: 100 µg

Sequence | concentration/toxicity ratio (Vero E6 cells [1]) | toxic effect (Vero E6 cells [2])
VTNATAPNTDVSVSLSMILQTISASI [pep6] | best concentration/toxicity ratio | 
VVNTDSLSSVTNATSIQITAPASMLI [DPP4_270–295] |  | without observing any toxic effect
